From ChEMBL document CHEMBL1201862, “PubChem BioAssay data set” (2004)
The source made the active and inactive calls.

Columns and labels:
[1] = target: T1, Oxysterols receptor LXR-beta (Homo sapiens, UniProt P55055); format: functional, cell-based;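 further: agonist activity at LXR measured by a cell-based luminescence readout across a dose range, run as a counterscreen for daf-12 agonists; HEK293 cells with Gal4-LXR fusion and GAL4-driven luciferase reporter; potency for activation of Gal4-LXR reporter so compounds are agonists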
T1 sequence (P55055 whole entry): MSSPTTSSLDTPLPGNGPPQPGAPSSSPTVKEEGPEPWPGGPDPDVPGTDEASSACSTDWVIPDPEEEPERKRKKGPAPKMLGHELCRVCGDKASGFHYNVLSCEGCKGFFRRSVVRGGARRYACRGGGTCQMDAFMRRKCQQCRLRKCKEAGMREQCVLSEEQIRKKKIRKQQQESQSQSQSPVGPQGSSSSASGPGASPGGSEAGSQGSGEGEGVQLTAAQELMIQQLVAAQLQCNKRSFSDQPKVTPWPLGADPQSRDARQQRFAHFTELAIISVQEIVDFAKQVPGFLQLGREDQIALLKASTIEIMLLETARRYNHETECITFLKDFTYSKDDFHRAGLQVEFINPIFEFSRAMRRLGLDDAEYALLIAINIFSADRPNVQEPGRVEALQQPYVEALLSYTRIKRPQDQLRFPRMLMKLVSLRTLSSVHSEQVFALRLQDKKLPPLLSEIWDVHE

[2] = Luminescence Cell-Based Dose Response HTS to Identify Activators of Luciferase Translation or Activity in H4 […] Cells. [Related pubchem assays: 1829 (Project Summary), 1814 (Primary HTS)]; format: functional
[3] = Luminescence Cell-Based Dose Response to Identify Activators of Luciferase Translation or Activity in H4-C Neuroglioblastoma Cells. [Related pubchem assays: 1829 (Project Summary), 1814 (Primary HTS)]; format: functional
[4] = Luminescence Cell-Based Dose Confirmation to Identify Activators of 5'UTR Stem-Loop Driven Alpha-Synuclein mRNA Translation in H4 Neuroglioblastoma Cells. [Related pubchem assays: 1829 (Project Summary), 1814 (Primary HTS)]; format: functional
[5] = Luminescence Cell-Based Dose Response to Identify Activators of 5'UTR Stem-Loop Driven Prion Protein mRNA Translation in H4-C Neuroglioblastoma Cells. [Related pubchem assays: 1829 (Project Summary), 1814 (Primary HTS)]; format: functional
[6] = inhibition of ADAM10 peptide cleavage – biochemical, FRET peptide substrate, recombinant human ADAM10, selectivity assay for ADAM17 exosite inhibitor project, dose response (AID 743259);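 further: ADAM10 enzyme cleaving a FRET peptide substrate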
[7] = target: Disintegrin and metalloproteinase domain-containing protein 17 (Homo sapiens, UniProt P78536); test: exosite inhibitors of ADAM17, dose response, biochemical (AID 743260)
Sequence of Disintegrin and metalloproteinase domain-containing protein 17 (P78536 whole entry, the tested form may be a part): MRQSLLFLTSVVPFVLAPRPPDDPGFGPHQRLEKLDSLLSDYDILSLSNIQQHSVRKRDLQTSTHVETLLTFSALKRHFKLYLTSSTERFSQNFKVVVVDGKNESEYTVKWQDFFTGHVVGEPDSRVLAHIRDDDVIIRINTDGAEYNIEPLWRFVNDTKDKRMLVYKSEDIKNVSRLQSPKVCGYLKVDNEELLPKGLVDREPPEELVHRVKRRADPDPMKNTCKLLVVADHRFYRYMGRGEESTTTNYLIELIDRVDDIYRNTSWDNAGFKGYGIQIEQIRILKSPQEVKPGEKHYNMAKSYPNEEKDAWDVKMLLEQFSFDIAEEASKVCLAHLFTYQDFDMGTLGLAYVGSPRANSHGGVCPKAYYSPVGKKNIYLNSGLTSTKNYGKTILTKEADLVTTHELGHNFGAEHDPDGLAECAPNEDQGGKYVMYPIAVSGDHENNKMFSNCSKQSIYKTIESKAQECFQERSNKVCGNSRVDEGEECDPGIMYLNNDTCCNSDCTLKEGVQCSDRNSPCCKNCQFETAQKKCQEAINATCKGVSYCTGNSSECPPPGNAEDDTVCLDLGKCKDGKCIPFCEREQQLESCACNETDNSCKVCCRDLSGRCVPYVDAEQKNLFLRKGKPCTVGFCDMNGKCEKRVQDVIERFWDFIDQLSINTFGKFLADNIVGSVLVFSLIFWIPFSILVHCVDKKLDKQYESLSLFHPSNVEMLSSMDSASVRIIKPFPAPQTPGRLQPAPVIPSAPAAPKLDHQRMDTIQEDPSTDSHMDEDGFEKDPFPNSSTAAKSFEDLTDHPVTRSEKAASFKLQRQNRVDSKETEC

[8] = viability of uninfected HEp-2 cells – cell-based, HTS, cytotoxicity control for RSV inhibitor project, dose response (AID 2410); format: functional; details: human respiratory syncytial virus
[9] = general mammalian cell viability loss – activator set, cherry-pick, cytotoxicity control for miR-122 modulator project, dose response (AID 720690); format: functional, cell-based;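 further: HEK293T human cells scored for general mammalian cytotoxicity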
Streptokinase A = target: T2, Streptokinase A (Streptococcus pyogenes serotype M1, UniProt P10520); test: viability-normalized secreted streptokinase activity reduction – plasminogen activation absorbance, OD405, dose response (AID 1914); format: functional, Streptococcus pyogenes M1 GAS;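 further: secreted streptokinase activity via plasminogen activation per viability signal from cell pellet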
T2 sequence (P10520 whole entry): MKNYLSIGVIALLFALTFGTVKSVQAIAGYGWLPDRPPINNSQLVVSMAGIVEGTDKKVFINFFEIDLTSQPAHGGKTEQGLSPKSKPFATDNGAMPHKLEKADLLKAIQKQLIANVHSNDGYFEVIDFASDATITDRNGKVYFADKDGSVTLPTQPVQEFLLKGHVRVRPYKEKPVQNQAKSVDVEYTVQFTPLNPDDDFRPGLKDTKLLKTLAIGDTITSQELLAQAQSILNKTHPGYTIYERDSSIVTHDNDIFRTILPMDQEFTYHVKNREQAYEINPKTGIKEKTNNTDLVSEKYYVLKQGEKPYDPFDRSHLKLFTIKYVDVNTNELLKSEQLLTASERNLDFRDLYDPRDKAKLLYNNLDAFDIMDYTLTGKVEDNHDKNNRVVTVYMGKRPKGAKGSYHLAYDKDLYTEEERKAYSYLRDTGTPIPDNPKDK

[10] = system: Streptococcus sp. 'group A'; test: Streptococcus pyogenes SK(-)GAS viability under kanamycin – luminescence, BacTiterGlo, confirmation, counter-screen for streptokinase expression inhibitor project, dose response (AID 1900); format: functional, organism-based; details: Streptococcus sp. 'group A'
Streptococcus = test: GAS UMAA2166 growth inhibition – luminescence, BacTiterGlo, counter-screen for streptokinase expression inhibitor project, dose response (AID 1915); format: functional, organism-based; details: Streptococcus;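 further: potency for reduction of bacterial viability or growth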
[11] = target: T3, Long-chain-fatty-acid--AMP ligase FadD28 (Mycobacterium tuberculosis, UniProt P9WQ59); test: Fluorescence polarization aasay to screen for inhibitors that compete for the binding of FadD28 to a bisubstrate Measured in Biochemical System Using Plate Reader - 2147-01_Inhibitor_Dose_CherryPick_Activity.; format: functional, Mycobacterium tuberculosis H37Rv
T3 sequence (P9WQ59 whole entry): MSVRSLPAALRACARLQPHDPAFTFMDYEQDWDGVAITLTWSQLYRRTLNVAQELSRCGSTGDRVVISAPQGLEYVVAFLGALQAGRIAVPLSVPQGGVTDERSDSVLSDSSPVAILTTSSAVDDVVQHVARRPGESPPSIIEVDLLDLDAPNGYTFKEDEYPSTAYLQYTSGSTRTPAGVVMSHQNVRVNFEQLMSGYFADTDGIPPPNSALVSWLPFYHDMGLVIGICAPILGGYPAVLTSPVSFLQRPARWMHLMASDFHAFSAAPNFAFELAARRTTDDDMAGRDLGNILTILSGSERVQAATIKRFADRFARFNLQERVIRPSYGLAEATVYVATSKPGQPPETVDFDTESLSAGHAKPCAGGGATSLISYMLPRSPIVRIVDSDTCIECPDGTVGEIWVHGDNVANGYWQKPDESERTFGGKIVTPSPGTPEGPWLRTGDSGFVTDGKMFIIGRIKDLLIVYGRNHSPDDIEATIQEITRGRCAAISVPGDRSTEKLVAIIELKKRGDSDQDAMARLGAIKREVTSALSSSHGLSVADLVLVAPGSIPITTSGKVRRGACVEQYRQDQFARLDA

[12] = bead-based luminescence quenchers, dual-tagged ARNT – biochemical, AlphaScreen, cherry-pick, artefact control for ARNT-TACC3 interaction inhibitor project, dose response (AID 651705); format: functional;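 further: AlphaScreen bead proximity signal that flags compounds interfering with the detection technology; potency reflects signal decrease which marks the compound as an assay artifact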
cells [13] = format: functional
[14] = target: T4, Adenosylmethionine-8-amino-7-oxononanoate aminotransferase (Mycobacterium tuberculosis, UniProt P9WQ81); test: Mycobacterium tuberculosis BioA enzyme inhibitor Measured in Biochemical System Using Plate Reader - 2163-02_Inhibitor_Dose_CherryPick_Activity.; format: functional, Mycobacterium tuberculosis UT205
T4 sequence (P9WQ81 whole entry): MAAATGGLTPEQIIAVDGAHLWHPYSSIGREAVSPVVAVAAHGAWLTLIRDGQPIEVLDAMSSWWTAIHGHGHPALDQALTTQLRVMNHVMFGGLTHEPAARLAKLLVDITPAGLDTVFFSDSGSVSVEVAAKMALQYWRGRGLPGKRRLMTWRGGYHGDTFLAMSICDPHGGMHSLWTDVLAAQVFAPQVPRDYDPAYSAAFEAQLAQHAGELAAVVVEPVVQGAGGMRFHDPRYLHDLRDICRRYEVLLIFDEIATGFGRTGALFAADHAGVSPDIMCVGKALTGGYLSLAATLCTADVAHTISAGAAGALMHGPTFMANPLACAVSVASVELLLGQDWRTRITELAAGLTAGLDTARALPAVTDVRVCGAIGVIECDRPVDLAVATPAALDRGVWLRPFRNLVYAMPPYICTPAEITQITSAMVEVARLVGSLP

[15] = HGIII-sPLA2 enzyme inhibition potency – biochemical, QFRET, IC50, dose response (AID 743457);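 further: green fluorescence rise as the enzyme cleaves BODIPY PC-A2 in liposomes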
cells [16] = format: functional, cell-based
cells [17] = format: functional, cell-based; remark: listed apart in the source
[18] = target: Luciferin 4-monooxygenase (Photinus pyralis, UniProt P08659); test: inhibition of purified Photinus pyralis luciferase – biochemical, luminescence, dose response (AID 1891)
Sequence of Luciferin 4-monooxygenase (P08659 whole entry): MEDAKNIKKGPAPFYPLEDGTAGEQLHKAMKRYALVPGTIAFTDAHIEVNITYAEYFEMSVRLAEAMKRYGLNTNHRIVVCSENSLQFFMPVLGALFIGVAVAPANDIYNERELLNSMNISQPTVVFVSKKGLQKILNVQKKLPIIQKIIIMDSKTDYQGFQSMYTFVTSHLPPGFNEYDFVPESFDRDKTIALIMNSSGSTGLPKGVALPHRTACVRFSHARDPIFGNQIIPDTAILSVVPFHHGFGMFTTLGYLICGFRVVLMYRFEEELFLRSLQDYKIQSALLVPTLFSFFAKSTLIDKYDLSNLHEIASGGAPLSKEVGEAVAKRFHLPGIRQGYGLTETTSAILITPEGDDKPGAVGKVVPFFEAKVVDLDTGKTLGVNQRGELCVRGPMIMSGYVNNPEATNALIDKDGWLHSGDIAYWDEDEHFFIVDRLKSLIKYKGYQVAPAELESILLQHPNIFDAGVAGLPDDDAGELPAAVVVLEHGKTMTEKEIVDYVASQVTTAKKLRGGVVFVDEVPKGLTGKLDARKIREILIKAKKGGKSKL

[19] = Luminescence Cell-Based Dose Confirmation HTS to Identify Inhibitors of Platelet Dense Granule Release. [Related pubchem assays: 1663 (Primary HTS), 1678 (Summary of Project)]; format: functional
[20] = toxicity toward HepG2 liver cells – cell-based, plate reader, cherry-pick, antagonist series, cytotoxicity control, dose response (AID 743416); format: functional
[21] = blockers of bursicon-stimulated LGR2 cAMP reporter – cell-based, HEK293, CRE-luciferase reporter, cherry pick, set 2, dose response (AID 743343); format: functional;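 further: transfected cells were stimulated with diluted bursicon conditioned medium after compound addition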
INS1 = test: INS-1E survival protection against cytokine death – cell-based, luminescence, retest, dose response (AID 449756); format: functional; details: Rattus norvegicus;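 further: cell death triggered by IL-1 beta plus TNF-alpha plus IFN-gamma mixture; protective hits raise ATP signal compared with cytokine alone wells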
[22] = luciferase reporter signal suppression in cells – H4 neuroglioma cells, luminescence, dose response (AID 1990); format: functional, cell-based
[23] = THP-1 cell cytotoxicity, dose response, cytotoxicity control for non-replicating M. tuberculosis project (AID 489025); format: functional
[24] = alpha-synuclein stem-loop luciferase translation blockers – H4 neuroglioma cells, luminescence, confirmation (AID 1988); format: functional, cell-based
[25] = A549 cell cytotoxicity, dose response, cytotoxicity control, plate reader, cherry-pick, antagonist series (AID 743412); format: functional, cell-based
[26] = HepG2 cell cytotoxicity, dose response, cytotoxicity control for non-replicating M. tuberculosis project (AID 489018); format: functional; details: Mycobacterium tuberculosis
[27] = fluconazole-exposed Candida albicans growth modulators – fluorescence, retest, confirmation (AID 2467); format: functional, cell-based
[28] = Vero E6 cell cytotoxicity, dose response, cytotoxicity control for non-replicating M. tuberculosis project, secondary assay (AID 492998); format: functional, VeroE6; details: Vero C1008
[29] = NIH-3T3 fibroblast cytotoxicity, dose response, cytotoxicity control, cell-based, fluorescence, Alamar Blue, secondary assay (AID 2327); format: functional;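 further: NIH-3T3 mouse fibroblasts cultured with fluconazole at 8 µg/mL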
[30] = Luminescence Cell-Based Dose Response HTS to Identify Inhibitors of 5'UTR Stem-Loop Driven Prion Protein mRNA Translation in H4 Neuroglioblastoma Cells. [Related pubchem assays: 1827 (Project Summary), 1813 (Primary HTS)]; format: functional
Caspase-6 = target: T5, Caspase-6 (Homo sapiens, UniProt P55212); test: inhibition of CASP6 peptide cleavage – biochemical, VEID-R110 fluorescence, cherry-pick, dose response (AID 720632)
T5 sequence (P55212 whole entry): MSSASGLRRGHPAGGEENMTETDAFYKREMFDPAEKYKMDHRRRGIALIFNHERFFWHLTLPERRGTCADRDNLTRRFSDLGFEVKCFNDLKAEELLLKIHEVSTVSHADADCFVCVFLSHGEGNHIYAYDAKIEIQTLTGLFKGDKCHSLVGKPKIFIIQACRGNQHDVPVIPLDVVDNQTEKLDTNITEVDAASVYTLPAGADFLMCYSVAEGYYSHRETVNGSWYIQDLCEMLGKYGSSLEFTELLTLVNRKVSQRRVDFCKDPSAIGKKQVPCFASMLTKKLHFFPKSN

SMILES: CCOC(=O)c1cnc(SCc2ccccc2)nc1N
- EC50 [1]: > 67.5 µM (inactive)
- EC50 [2]: < 0.1 µM (active)
- EC50 [3]: 0.278 µM (active)
- EC50 [4]: 0.23 µM (active)
- EC50 [5]: 0.342 µM (active)

SMILES: COC(=O)C1=C(c2ccccc2OCc2ccccc2)C[C@@H]2CC[C@H]1N2C(=O)NCc1ccc(Cl)cc1
- IC50 [6]: > 7.72 µM (active)
- IC50 [7]: > 69.5 µM (inactive)

SMILES: Cc1cccc(C(=N)NOC(=O)c2cccs2)c1
- EC50 [1]: > 67.5 µM (inactive)

SMILES: COc1ccc2c(c1)C(C)=CC(C)(C)N2C(=O)CNCc1ccc2c(c1)OCO2
- CC50 [8]: > 50 µM (active)
- AC50 [9]: 40.4 µM (active)

SMILES: Cc1ccc(NC(=O)C(OC(=O)c2cc(C)oc2C)c2ccccc2)cc1 (stereo unspecified)
- IC50 [6]: 24.5 µM (inactive)
- IC50 [7]: > 69.5 µM (inactive)

SMILES: CCc1c(O)n(C2CCCCC2)c(SCC(=O)Nc2nc3ccccc3s2)nc1=O
- EC50 (Streptokinase A): 17.1 µM (active)
- EC50 [10]: 11.8 µM (active)
- EC50 (Streptococcus): 122 µM (active)
- AC50 [11]: 29 µM (active)

SMILES: Clc1cccc(-c2ccc(CNCc3ccccn3)o2)c1
- AC50 [12]: 94.4 µM (active)
- IC50 (cells [13]): 3.05 µM (active)

SMILES: O=C(CSc1nc2cc(C(=O)O)ccc2c(=O)n1-c1ccc(F)cc1)Nc1ccc(F)c(F)c1F
- AC50 [14]: 2.65 µM (active)

SMILES: O=c1[nH]c(N2CCN(Cc3ccc4c(c3)OCO4)CC2)nc2c1CCC2
- AC50 [14]: 0.93 µM (active)

SMILES: CC(Oc1ccccc1)C(=O)OCC(=O)N1CC(=O)Nc2ccccc21 (stereo unspecified)
- AC50 [11]: > 100 µM (inactive)

SMILES: O=c1c2ccccc2cnn1-c1ccc2ccccc2c1
- EC50 [1]: > 67.5 µM (inactive)

SMILES: O=C(NNC(=S)NC1CCCCC1)c1ccccc1Cl
- IC50 [15]: > 122 µM (inactive)

SMILES: CCC(NCCc1ccccc1)=C1C(=O)NC(=O)NC1=O
- IC50 (cells [16]): > 29.9 µM (inactive)
- EC50 (cells [17]): > 29.9 µM (inactive)
- EC50 [18]: > 112 µM (not active)
- EC50 [19]: 14.5 µM (active)

SMILES: CC(C)c1ccc2c(c1)C(N1CCNCC1)Cc1ccc(F)cc1S2 (stereo unspecified)
- AC50 [20]: 7.87 µM (active)
- AC50 [21]: 38.2 µM (active)
- AC50 (INS1): 6.71 µM (active)
- EC50 [22]: > 120 µM (not active)
- CC50 [23]: 16.3 µM (active)
- EC50 [24]: 11.6 µM (active)
- AC50 [25]: 6.71 µM (active)
- IC50 (cells [13]): 14.2 µM (active)
- CC50 [26]: 18.1 µM (active)
- EC50 [27]: > 38 µM (not active)
- CC50 [28]: 12.3 µM (active)
- EC50 [29]: > 150 µM (inactive)
- EC50 [30]: 25.7 µM (active)

SMILES: CC(=O)c1cccc(OCC(O)CNCCc2ccc(Cl)cc2)c1 (stereo unspecified)
- IC50 (cells [16]): > 29.9 µM (inactive)
- EC50 (cells [17]): > 29.9 µM (inactive)

SMILES: CN(c1ccc(OCC(=O)Nc2cc(Cl)ccc2C(=O)O)cc1)S(=O)(=O)c1ccc(F)cc1
- AC50 (Caspase-6): 27.2 µM (active)

SMILES: CN1c2ccc(-c3ccccc3)cc2[C@H]2[C@H](CCN2C(=O)Cc2ccccn2)[C@H]1CO
- AC50 [14]: 6.13 µM (active)

SMILES: COc1cc(NC(=O)C/C(C)=N/NC(=O)Cc2ccccc2)c(OC)cc1Cl
- IC50 [6]: > 69.5 µM (inactive)
- IC50 [7]: > 69.5 µM (inactive)
